Data as given in patent US9073945B2, “Alpha-IIb-beta-3 inhibitors and uses thereof” (THE ROCKEFELLER UNIVERSITY, priority 2006, dated 2015).
Positions of bridges follow the written chain, without caps; N, C: chain ends. Non-standard residues stand in square brackets, D forms with d. Residues, ends and D or L forms follow the SMILES beside them. hArg = N=C(N)NCCCC[C@H](N)C(=O)O; Mpa = O=C(O)CCS

How the values were obtained:
[1] = test system: platelets; experiment: Platelet aggregation in aggregometer; format: cell-based, human; details: for IC50: Homo sapiens, Platelet
Experimental: (§1) Platelet Preparation from Peripheral Blood. After informed consent is obtained from healthy human donors who have not taken any medication known to inhibit platelet function for at least 7 days, peripheral venous blood is collected via a 19-gauge butterfly needle into tubes containing either a 10% volume of sodium citrate (3.8%), or a 15% volume of Acid-Citrate-Dextrose (ACD-A, 74.8 mM sodium citrate, 38 mM citric acid, 124 mM dextrose). Platelet-rich plasma (PRP) is prepared by centrifugation at 650 g for 4 minutes at 22° C. and is gently removed with a plastic pipette. Platelet-poor plasma (PPP) is prepared by further centrifugation of the remaining blood at 3000 g for 10 minutes at 22° C. Washed platelets (WP) are prepared by treating ACD-anticoagulated PRP with 1 μM PGE1, adding 0.10 vol ACD, and centrifuge at 1200 g for 8 min at 22° C. The platelet pellet is resuspended in HBMT. Platelet counts are determined with the automated particle counter (ADVIA 120 hematological analyzer Bayer).
Platelet Aggregation in Aggregometer. Citrated PRP is incubated with compounds or controls for 15 min 37° C. in 300-500 μl vols in glass aggregometer tubes. Agonists are added after 30 s equilibration in the aggregometer (Kowa) and light transmittance is measured for 8 min. Agonists include ADP, collagen (native type 1 collagen fibrils), restocetin, arachidonic acid, and thrombin receptor activating peptide [TRAP (SFLLRN)].

[2] = test system: platelets; experiment: Fluorescent fibrinogen binding to platelets; format: cell-based; details: Homo sapiens, Platelet; AP5 60 μg/ml; read-out: IC50, fibrinogen binding to platelets induced by activating LIBS mAb AP5
Experimental: (§2) Fluorescent Fibrinogen Binding. Washed platelets at 250,000/μl or αIIbβ3-expressing HEK293 cells at 10×10^6/ml in HBMT with 2 mM Ca^2+/1 mM Mg^2+ are incubated with compounds or controls and 200 μg/ml fluorescent fibrinogen (Invitrogen) with or without 60 μg/ml of the activating mAb AP5 for 30 min at 22° C. in the dark. Unbound fibrinogen is removed by centrifugation at 1800 rpm for 3 min and the platelets are resuspended in HBMT before FACS analysis.

[3] = target: T1, purified αIIbβ3 (Homo sapiens, UniProt P05106+P08514); experiment: Fibrinogen binding to purified αIIbβ3; details: for effect of activating mAb AP5 on fibrinogen binding to purified αIIbβ3 in the presence of the substance: AP5 60 μg/ml
T1 construct: purchased Enzyme Research Laboratories, South Bend, Ind
T1 sequence (P08514 32-887 limits assumed): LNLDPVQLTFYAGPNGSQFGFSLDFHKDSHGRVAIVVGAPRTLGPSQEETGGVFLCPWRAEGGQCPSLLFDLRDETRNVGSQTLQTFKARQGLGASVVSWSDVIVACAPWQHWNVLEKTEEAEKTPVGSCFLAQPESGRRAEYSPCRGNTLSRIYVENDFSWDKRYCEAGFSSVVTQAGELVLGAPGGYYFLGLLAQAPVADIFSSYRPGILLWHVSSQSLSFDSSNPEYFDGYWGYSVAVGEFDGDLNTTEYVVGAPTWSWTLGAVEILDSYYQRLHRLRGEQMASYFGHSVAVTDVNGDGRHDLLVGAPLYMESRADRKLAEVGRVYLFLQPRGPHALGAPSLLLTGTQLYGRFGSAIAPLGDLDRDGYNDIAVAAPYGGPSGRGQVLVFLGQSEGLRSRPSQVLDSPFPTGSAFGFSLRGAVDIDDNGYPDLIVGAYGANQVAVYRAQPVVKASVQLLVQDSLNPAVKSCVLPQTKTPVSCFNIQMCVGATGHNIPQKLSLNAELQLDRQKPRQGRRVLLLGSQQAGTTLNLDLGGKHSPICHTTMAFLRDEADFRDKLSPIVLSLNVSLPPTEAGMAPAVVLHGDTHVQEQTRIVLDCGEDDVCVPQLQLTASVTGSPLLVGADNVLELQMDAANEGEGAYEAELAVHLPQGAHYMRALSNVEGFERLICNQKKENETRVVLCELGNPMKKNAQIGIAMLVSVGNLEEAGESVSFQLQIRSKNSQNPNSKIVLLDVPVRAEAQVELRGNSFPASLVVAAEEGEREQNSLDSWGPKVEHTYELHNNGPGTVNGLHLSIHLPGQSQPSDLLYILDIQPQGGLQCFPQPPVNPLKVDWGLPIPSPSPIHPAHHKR
T1 sequence (P08514 891-1039 partner limits assumed): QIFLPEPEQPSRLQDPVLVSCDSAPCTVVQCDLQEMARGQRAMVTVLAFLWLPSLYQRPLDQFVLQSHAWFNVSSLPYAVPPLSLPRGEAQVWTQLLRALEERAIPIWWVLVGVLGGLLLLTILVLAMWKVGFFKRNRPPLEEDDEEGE
T1 sequence (P05106 27-788): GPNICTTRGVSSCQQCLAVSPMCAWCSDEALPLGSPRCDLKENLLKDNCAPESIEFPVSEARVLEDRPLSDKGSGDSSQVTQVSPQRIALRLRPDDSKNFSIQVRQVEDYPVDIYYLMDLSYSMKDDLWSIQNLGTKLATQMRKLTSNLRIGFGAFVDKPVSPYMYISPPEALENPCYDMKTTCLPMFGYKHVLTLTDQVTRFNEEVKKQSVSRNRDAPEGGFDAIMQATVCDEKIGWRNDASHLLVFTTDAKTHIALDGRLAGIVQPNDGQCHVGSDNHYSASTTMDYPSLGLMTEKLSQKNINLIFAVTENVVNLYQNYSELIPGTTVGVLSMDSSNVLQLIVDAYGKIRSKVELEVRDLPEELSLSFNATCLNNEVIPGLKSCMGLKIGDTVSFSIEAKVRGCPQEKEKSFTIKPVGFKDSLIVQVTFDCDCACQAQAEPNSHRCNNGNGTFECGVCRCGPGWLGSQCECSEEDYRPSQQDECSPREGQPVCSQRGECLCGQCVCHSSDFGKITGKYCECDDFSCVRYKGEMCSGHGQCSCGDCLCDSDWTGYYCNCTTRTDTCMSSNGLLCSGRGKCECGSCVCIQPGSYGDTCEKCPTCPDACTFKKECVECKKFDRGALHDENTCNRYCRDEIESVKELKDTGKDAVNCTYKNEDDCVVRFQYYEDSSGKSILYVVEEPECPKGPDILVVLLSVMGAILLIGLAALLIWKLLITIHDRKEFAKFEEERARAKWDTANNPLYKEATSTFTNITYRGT
Experimental: (§3) Fibrinogen Binding to Purified αIIbβ3. The anti-β3 mAb 7H2 (10 μg/ml) is adsorbed to polystyrene microtiter plate wells overnight at 4° C., and wells are then blocked with 3.5% BSA for 1 h at 22° C. Purified αIIbβ3 (Enzyme Research Laboratories, South Bend, Ind.) is diluted in buffer A (50 mM Tris/HCl, 100 mM NaCl, 1 mM CaCl2, 1 mM MgCl2, 1% BSA, 0.0035% Triton X-100) to 10 μg/ml, and is allowed to adhere to wells coated with mAb 7H2 for 2 h at 37° C. Wells are then washed 3 times with buffer A. Fibrinogen, prepared in buffer A (20 μg/ml) in the presence or absence of mAb AP5 (60 μg/ml), is incubated in plate wells for 2 h at 37° C. with or without the Compounds or control solutions. Wells are washed 3 times with buffer A and then incubated with a horseradish peroxidase-conjugated polyclonal anti-fibrinogen antibody (1:1,000 in buffer A; DAKO, Glostrup, Denmark) for 1 h at 22° C. Wells are washed 3 times, 200 μl of a peroxidase substrate [3,3′,5,5′-tetramethylbenzidine (TMB), Sigma-Aldrich] is added, the reaction is terminated after 30 min by acidification with 50 μl 0.5 M H2SO4, and absorbance is determined at 450 nm. For priming experiments the procedure is the same except: 1) αIIbβ3 is allowed to adhere in the presence of either eptifibatide (10 μM), RGDS (10 μM; Rockefeller University Proteomics Resource Center), the Compounds (100 μM), or DMSO (1%); 2) wells are washed 10 times after αIIbβ3 adhesion; and 3) absorbance is determined at 655 nm after 10 min.

[4] = test system: platelets in citrated whole blood; experiment: Platelet adhesion under shear stress (cone and plate); format: cell-based, human; details: preferred Compound 50 μM, tirofiban 10 μM; 1800 s^−1; n=3
Experimental: Platelet Adhesion Under Shear Stress. A cone and plate system (Diamed, Cressier, Switzerland) is used to assess the effect of the Compounds on platelet deposition under shear stress. 0.25 ml of citrated whole blood is incubated with nothing, DMSO (0.5%), the Compounds (50 μM), or tirofiban (10 μM) for 15 min at 22° C. and placed in polystyrene wells (16 mm diameter, Nunc). A constant uniform shear force of 1800 s^−1 was applied across the well using a teflon cone for 2 min at 22° C. Wells are washed with buffer, fixed with 1% paraformaldehyde, stained with Wright's Stain (Sigma-Aldrich), and analyzed for platelet adhesion using a 20× objective in an inverted microscope (IX51, Olympus, Center Valley, Pa.). Platelet adhesion is assessed by measuring the area occupied by platelets in each of four uniformly selected viewing areas in duplicate wells using image analysis software (SlideBook, Intelligent Imaging Innovations, Denver, Colo.).

[5] = test system: αVβ3-expressing CS1 cells; experiment: CS1 cell adhesion to vitronectin; format: cell-based; details: mAbs 20 μg/ml, compound 100 μM; Mg2+
Experimental: (§4) Platelet and Cell Adhesion. Platelets are prepared from ACD-anticoagulated blood as previously described. Cells, either CS1 (αVβ3-expressing) or HEK293 (αIIbβ3-expressing) are separated from culture media by centrifugation at 200 g, 4 min. Cells are resuspended in HBMT containing 1 mM MgCl2 (CS1 cells) and/or 2 mM CaCl2 (HEK293 cells). Polystyrene 96-well microtiter plates (Nunc) are coated with either fibrinogen (50 μg/ml), vitronectin (5 μg/ml), or collagen (33 μg/ml, rat tail type 1, Becton Dickson) for 1 h, and blocked with HBMT for at least 1 h. Platelets and cells are treated with compounds or control solutions for 15 min at 37° C. before they are added to the microtiter wells. After adhering for 1 h at either 22° C. (platelets) or 37° C. (cells), non-adherent platelets or cells are removed by washing 3 times with HBMT containing the same ion composition as the buffer used for adhesion. Adherent platelets or cells are quantified by their endogenous acid phosphatase activity on p-nitrophenyl phosphate (pNPP) (1 mg/ml in 0.1 M sodium citrate, 0.1% Triton X-100, pH 5.4). In other experiments, 8-chambered glass coverslips (Nunc) are coated with collagen (33 μg/ml) for 1 h at 22° C. Washed platelets are allowed to adhere for 1 h at 22° C. and the coverslips are stained with the Alexa-488-conjugated β3-specific mAb 7H2. […]

[6] = target: T1, purified αIIbβ3; experiment: Priming of fibrinogen binding to purified αIIbβ3; details: eptifibatide 10 μM, RGDS 10 μM, Compounds 100 μM
Experimental: as §3

[7] = target: T2, HEK293 cells expressing αIIbβ3 (Homo sapiens, UniProt P05106+P08514); experiment: HEK293 cell adhesion to fibrinogen; format: cell-based; details: compound 100 μM, fibrinogen 50 μg/ml, 2 mM Ca2+/1 mM Mg2+, read-out: inhibition of HEK293 cell adhesion to immobilized fibrinogen
T2 construct: expressed in transfected cells; host or cells: HEK293
T2 sequence (P08514 32-887 limits assumed): as the sequence (P08514 32-887 limits assumed) above
T2 sequence (P08514 891-1039 partner limits assumed): as the sequence (P08514 891-1039 partner limits assumed) above
T2 sequence (P05106 27-788): as the sequence (P05106 27-788) above
Experimental: as §4

[8] = test system: platelets in citrated PRP; experiment: Platelet aggregation in 96-well plates (secondary screen); format: cell-based, human; details: induced by 5 μM ADP; 16.6 μM compound
Experimental: as §1, with “The platelet pellet is resuspended in HBMT.” left out
Platelet Aggregation in 96-well Plates. […] A 66.6 μl sample of citrated PRP from volunteer blood donors is added to compound-containing wells, and plates are allowed to equilibrate to 37° C. in the plate reader (SpectraMax) for 10 minutes. […] Absorbance is measured at 563 nm every 10 seconds with shaking for 3 s between reads for 8 minutes. Percent aggregation is calculated as (AbsPRP−Abssample)/(AbsPRP−AbsPPP).

[9] = target: T3, αIIbβ3 (Homo sapiens, UniProt P05106+P08514); experiment: LIBS-specific mAb binding to resting platelets (flow cytometry); format: cell-based; details: compound 100 μM
T3 construct: endogenous in cells; host or cells: washed resting platelets from platelet-rich plasma
T3 sequence (P08514 32-887 limits assumed): as the sequence (P08514 32-887 limits assumed) above
T3 sequence (P08514 891-1039 partner limits assumed): as the sequence (P08514 891-1039 partner limits assumed) above
T3 sequence (P05106 27-788): as the sequence (P05106 27-788) above
Experimental: mAb Binding. PRP anticoagulated with ACD is centrifuged at 1200 g for 8 min and is resuspended in HBMT containing 2 mM Ca^2+, 1 mmMg^2+. Platelet count is adjusted to 250,000/μl. Platelets are incubated with the Compounds (100 μM), tirofiban (100 μM), EDTA (10 mM), or 10E5 (10 μg/ml) for 15 min, at 37° C. Samples are incubated with Fluorescently-labeled monoclonal antibodies (PMI-1, LIBS-1, AP5, 7H2, 7E3, or 10E5; Alexa-488-conjugated, Invitrogen) at 20 μl, 5 μg/ml final concentration for 30 min at room temperature in the dark before diluting 1:10 for analysis on a FACSCalibur flow cytometer (Becton Dickson). Antibody binding is reported as the geometric mean fluorescence intensity; nonspecific binding is determined by adding a 50-fold excess of unlabeled antibody before adding labeled antibody.

[10] = target: T4, αIIbβ3-expressing HEK293 cells (Homo sapiens, UniProt P05106+P08514); experiment: Fluorescent fibrinogen binding to HEK293 cells; format: cell-based; details: AP5 60 μg/ml; n=3; read-out: IC50, AP5-induced fibrinogen binding to HEK293 cells
T4 construct: expressed in transfected cells; host or cells: HEK293
T4 sequence (P08514 32-887 limits assumed): as the sequence (P08514 32-887 limits assumed) above
T4 sequence (P08514 891-1039 partner limits assumed): as the sequence (P08514 891-1039 partner limits assumed) above
T4 sequence (P05106 27-788): as the sequence (P05106 27-788) above
Experimental: as §2

CCc1nn2c(=O)cc(N3CCNCC3)nc2s1 [Preferred Compound, 2-ethyl-7-(piperazin-1-yl)-5H-[1,3,4]thiadiazolo-[3,2-a]pyrimidin-5-one]
IC50 ([1]; induced by 5 μM ADP, read-out: IC50, aggregation of platelets in citrated PRP): 13 ± 5 µM | IC50 ([1]; induced by 5 μM TRAP, n=3, read-out: IC50, aggregation of washed platelets): 3.4 ± 0.4 µM | IC50 ([1]; induced by 5 μM TRAP, read-out: IC50, aggregation of platelets in citrated PRP): 29 ± 6 µM | IC50 ([1]; induced by 1 mM arachidonic acid, read-out: IC50, aggregation of platelets in citrated PRP): 8.5 ± 5.7 µM | platelet aggregation in PRP induced by collagen ([1]; compound 100 μM, collagen 2 μg/ml): completely inhibits | later phase of ristocetin-induced aggregation of PRP ([1]; ristocetin 1.8 mg/ml, data not shown): does inhibit | initial slope (initial wave) of ristocetin-induced agglutination/aggregation of PRP ([1]; ristocetin 1.8 mg/ml, mAb 6D1 20 μg/ml): does not inhibit | IC50 [2]: 29 ± 2 µM | effect of activating mAb AP5 on fibrinogen binding to purified αIIbβ3 in the presence of the substance [3]: does not increase | fibrinogen binding to purified αIIbβ3 in the presence of the substance ([3]; microtiter plates): blocked | IC50 ([3]; microtiter plates, n=3): 1.6 ± 0.4 µM | inhibition of platelet deposition under shear, area occupied by platelets vs DMSO [4]: 87±10% | CS1 cell adhesion to immobilized vitronectin [5]: adhere | fibrinogen binding after transient exposure of αIIbβ3 (priming), compared to untreated αIIbβ3 [6]: does not increase | inhibition at 100 µM [7]: 53 ± 4% | reduction of the initial slope of aggregation [8]: 84% | binding of β3 LIBS-specific mAb AP5 compared with untreated platelets [9]: do not differ significantly | binding of β3 LIBS-specific mAb LIBS-1 compared with untreated platelets [9]: do not differ significantly | mAb Binding (% of tirofiban), AP5 (β3) ([9]; resting washed platelets): 26 ± 5.9 % of tirofiban | mAb Binding (% of tirofiban), LIBS-1 (β3) ([9]; resting washed platelets): 5.7 ± 6.3 % of tirofiban | mAb Binding (% of tirofiban), PMI-1 (αIIb) ([9]; resting washed platelets): 44 ± 8.7 % of tirofiban | mAb Binding (% of tirofiban), PMI-1 (αIIb) ([9]; resting washed platelets, listed as 2-ethyl-7-(piperazin-1-yl)-5H-[1,3,4]thiadiazolo-[3,2-a]pyrimidin-5-one): 44 % of tirofiban | IC50 [10]: 21 ± 0.3 µM

CCCCS(=O)(=O)N[C@@H](Cc1ccc(OCCCCC2CCNCC2)cc1)C(=O)O [tirofiban, reference compound]
effect of activating mAb AP5 on fibrinogen binding to purified αIIbβ3 in the presence of the substance [3]: does not increase | fibrinogen binding to purified αIIbβ3 in the presence of the substance ([3]; microtiter plates): blocked | inhibition of platelet deposition under shear, area occupied by platelets vs DMSO [4]: 99±1%

N=C(N)NCCCC[C@@H]1NC(=O)CCSSC[C@@H](C(N)=O)NC(=O)[C@@H]2CCCN2C(=O)[C@H](Cc2c[nH]c3ccccc23)NC(=O)[C@H](CC(=O)O)NC(=O)CNC1=O [eptifibatide] ([Mpa][hArg]GDWPC-NH2; disulfide 1-7)
fibrinogen binding after transient exposure of αIIbβ3 (priming), compared to untreated αIIbβ3 [6]: 150±31%

RGDS
fibrinogen binding after transient exposure of αIIbβ3 (priming), compared to untreated αIIbβ3 [6]: 130±7%
